Patent US20220022457A1, “Microbicide Ammonium-Imidazolium Oligomers and Their Anti-Fungal Compositions” (AGENCY FOR SCIENCE, TECHNOLOGY AND RESEARCH, priority 2018, published 2022)
≈ marks a conversion by molar mass, not a printed value. Where “and” joins values, the source holds several entries; their conditions need not be identical. Equal entries are not always repeated.

Tests used:
[1] = Critical micelle concentration; type: physicochemical
[2] = test system: Candida albicans (ATCC 10231, fungus); assay: Minimum inhibitory concentration, microdilution assay; type: cell-based; conditions: for MIC C.A. / MIC: Candida albicans ~10^6 CFU/ml, YMB, room temperature, no visible growth; for MIC50 C.A. (value in brackets): Candida albicans, concentration inhibiting 50% fungal growth; for MIC: ATCC10231
Method: Staphylococcus aureus (ATCC 6538, Gram-positive), Escherichia coli (ATCC 8739, Gram-negative), Pseudomonas aeruginosa (ATCC 9027, Gram-negative), and Candida albicans (ATCC 10231, fungus) were used as representative microorganisms to challenge the antimicrobial functions of the oligomers. All bacteria and fungus were frozen at -80° C., and were grown overnight at 37° C. in Mueller Hinton Broth (MHB, BD Singapore) prior to experiments. Fungus was grown overnight at 22° C. in Yeast Mold Broth (YMB, BD Singapore). […] […] […] Medium solution containing microbial cells alone were used as control (100% microbial growth). The assay was performed in four replicates and the experiments were repeated at least two times.

Candida albicans = assay: Killing efficacy of selected oligomers at 62 μg/ml (FIG. 1); type: cell-based; conditions: 62 μg/ml; survivors at 24 h compared with 0 h
C. albicans = assay: Checkerboard assay of oligomers with triazoles (FIC); type: cell-based; conditions: Candida albicans; for FIC with Fluconazole: calculated from lowest concentration inhibiting at least 50% growth; for Alone MIC50 component A: oligomer alone
Method: […]. […] A row and a column in which a serial dilution of each agent was present alone were also prepared for MIC test. Then each solution in the well plate was inoculated with 100 μL of logarithmically grown 10^6 cells/ml C. albicans cells in the 96-well plate. The plate also contained a column with C. albicans only as control (100% cell growth). The cells were incubated at room temperature for 24 h with constant shaking, after which cell growth (i.e. the O.D. at 600 nm) was monitored with a microplate reader (TECAN) Synergy between fluconazole and oligomers was determined by calculating the fractional inhibitory concentration index ([…] was calculated as follows: FIC=(MIColigomer A in combination/MIColigomer A alone)+(MICazole B in combination/MICazole B alone). […] The interaction of selected oligomers with other triazoles such as itraconazole and voriconazole was also investigated using the checkerboard dilution method. For comparison, the interaction of the selected oligomer with a non-triazole antifungal agent […] was also investigated.

[3] = test system: Staphylococcus aureus (ATCC 6538, Gram-positive); assay: Minimum inhibitory concentration, microdilution assay; type: cell-based; conditions: lowest concentration with no visible growth; for MIC S.A.: 24 h
Method: (§1) Staphylococcus aureus (ATCC 6538, Gram-positive), Escherichia coli (ATCC 8739, Gram-negative), Pseudomonas aeruginosa (ATCC 9027, Gram-negative), and Candida albicans (ATCC 10231, fungus) were used as representative microorganisms to challenge the antimicrobial functions of the oligomers. All bacteria and fungus were frozen at -80° C., and were grown overnight at 37° C. in Mueller Hinton Broth (MHB, BD Singapore) prior to experiments. Fungus was grown overnight at 22° C. in Yeast Mold Broth (YMB, BD Singapore). […] The plates were incubated at 37° C. for 24 h with constant shaking speed at 300 rpm. […] Medium solution containing microbial cells alone were used as control (100% microbial growth). The assay was performed in four replicates and the experiments were repeated at least two times.

[4] = test system: Pseudomonas aeruginosa (ATCC 9027, Gram-negative); assay: as above; type: cell-based; conditions: lowest concentration with no visible growth; for MIC P.A.: 24 h
Method: as §1

[5] = test system: Escherichia coli (ATCC 8739, Gram-negative); assay: as above; type: cell-based; conditions: lowest concentration with no visible growth; for MIC E.C.: 24 h
Method: as §1

[6] = test system: mouse red blood cells (RBCs); assay: Hemolysis study; type: cell-based; conditions: oligomer concentration giving 10% hemolysis, 1 h, 37° C.
Method: After 1 h incubation at 37° C., the mixture was centrifuged at 2000 rpm for 5 min. Aliquots (100 μl) of the supernatant were transferred to a 96-well plate. Hemolytic activity was determined as a function of hemoglobin release by measuring absorbance of the supernatant at 576 nm using a microplate reader. A control solution that contained only PBS was used as a reference for 0% hemolysis. Absorbance of red blood cells lysed with 0.5% Triton-X was taken as 100% hemolysis. The oligomer concentration which results in 10% hemolysis is indicated as HC10 in Table 1. The data were expressed as mean and S.D. of four replicates. % Hemolysis=[OD576 nm (polymer)−OD576 nm (PBS)]/[OD576 nm (Triton-X)−OD576 nm (PBS)]×100%

[7] = oligomer in combination with Fluconazole
[8] = oligomer with Fluconazole (Table 2)
[9] = triazole in combination with IDPBX8
[10] = triazole in combination with IDPPX8

CCCCCCCC[N+]12CC[N+](C/C=C/C[N+]34CC[N+](CCCCCCCC)(CC3)CC4)(CC1)CC2.[Br-].[Br-].[Br-].[Br-] [DDB8]
CMC [1]: 1552 µg/mL
MIC C.A. [2]: 125 µg/mL
MIC50 C.A. (value in brackets) [2]: (16) μg/ml
Fungistatic or fungicidal (Candida albicans): fungistatic
FIC with Fluconazole (C. albicans): 0.25
MIC S.A. [3]: 4 µg/mL
MIC P.A. [4]: 125 µg/mL
MIC E.C. [5]: 8 µg/mL
HC10 [6]: >2000 µg/mL

CCCCCCCC[N+]12CC[N+](Cc3ccccc3C[N+]34CC[N+](CCCCCCCC)(CC3)CC4)(CC1)CC2.[Br-].[Br-].[Br-].[Br-] [DDO8]
CMC [1]: 3038 µg/mL
MIC C.A. [2]: 125 µg/mL
MIC50 C.A. (value in brackets) [2]: (16) μg/ml
FIC with Fluconazole (C. albicans): 0.38
MIC S.A. [3]: 4 µg/mL
MIC P.A. [4]: 62 µg/mL
MIC E.C. [5]: 8 µg/mL
HC10 [6]: >2000 µg/mL

CCCCCCCC[N+]12CC[N+](Cc3ccc(C[N+]45CC[N+](CCCCCCCC)(CC4)CC5)cc3)(CC1)CC2.[Br-].[Br-].[Br-].[Br-] [DDP8]
CMC [1]: 1896 µg/mL
MIC C.A. [2]: 500 µg/mL
MIC50 C.A. (value in brackets) [2]: (31) μg/ml
FIC with Fluconazole (C. albicans): 0.19
MIC S.A. [3]: 16 µg/mL
MIC P.A. [4]: 2000 µg/mL
MIC E.C. [5]: 16 µg/mL
HC10 [6]: >2000 µg/mL

CCCCCCCC[n+]1ccn(Cc2ccc(C[n+]3ccn(Cc4ccc(C[n+]5ccn(Cc6ccccc6Cn6cc[n+](Cc7ccc(Cn8cc[n+](Cc9ccc(Cn%10cc[n+](CCCCCCCC)c%10)cc9)c8)cc7)c6)c5)cc4)c3)cc2)c1 [IBN-C8, reference compound]
CMC [1]: 226 µg/mL
MIC [2]: 16 µg/mL
FIC with Fluconazole (C. albicans): 2.00
MIC ([3]; ATCC6538, 24 h): 4 µg/mL
MIC ([4]; ATCC9027, 24 h): 16 µg/mL
MIC ([5]; ATCC8739, 24 h): 8 µg/mL
HC10 [6]: >2000 µg/mL

CCCCCCCC[n+]1ccn(CC=CC[N+]23CC[N+](CC=CCn4cc[n+](CCCCCCCC)c4)(CC2)CC3)c1.[Br-].[Br-].[Br-].[Br-] [IDIB8]
CMC [1]: 1829 µg/mL
MIC C.A. [2]: >500 µg/mL
MIC50 C.A. (value in brackets) [2]: (32) μg/ml
FIC with Fluconazole (C. albicans): 0.25
MIC S.A. [3]: 8 µg/mL
MIC P.A. [4]: 500 µg/mL
MIC E.C. [5]: 16 µg/mL
HC10 [6]: >2000 µg/mL

CCCCCCCC[n+]1ccn(Cc2ccccc2C[N+]23CC[N+](Cc4ccccc4Cn4cc[n+](CCCCCCCC)c4)(CC2)CC3)c1.[Br-].[Br-].[Br-].[Br-] [IDIO8]
CMC [1]: 1667 µg/mL
MIC C.A. [2]: 62 µg/mL
MIC50 C.A. (value in brackets) [2]: (32) μg/ml
FIC with Fluconazole (C. albicans): 0.25
MIC S.A. [3]: 8 µg/mL
MIC P.A. [4]: 250 µg/mL
MIC E.C. [5]: 16 µg/mL
HC10 [6]: >2000 µg/mL

CCCCCCCC[n+]1ccn(Cc2ccc(C[N+]34CC[N+](Cc5ccc(Cn6cc[n+](CCCCCCCC)c6)cc5)(CC3)CC4)cc2)c1.[Br-].[Br-].[Cl-].[Cl-] [IDIP8]
CMC [1]: 985 µg/mL
MIC C.A. [2]: 125 µg/mL
MIC50 C.A. (value in brackets) [2]: (8) μg/ml
FIC with Fluconazole (C. albicans): 0.25
MIC S.A. [3]: 2 µg/mL
MIC P.A. [4]: 1000 µg/mL
MIC E.C. [5]: 16 µg/mL
HC10 [6]: >2000 µg/mL

C(=C\C[N+]12CC[N+](Cc3ccc(C[n+]4ccn(Cc5ccccc5)c4)cc3)(CC1)CC2)/C[N+]12CC[N+](Cc3ccc(C[n+]4ccn(Cc5ccccc5)c4)cc3)(CC1)CC2 [IDPBXb]
CMC [1]: 1732 µg/mL
MIC C.A. [2]: >1000 µg/mL
MIC50 C.A. (value in brackets) [2]: (1000) μg/ml
MIC S.A. [3]: 125 µg/mL
MIC P.A. [4]: >1000 µg/mL
MIC E.C. [5]: 62 µg/mL
HC10 [6]: >2000 µg/mL

CCCCCCCC[n+]1ccn(Cc2ccc(C[N+]34CC[N+](Cc5ccc(C[N+]67CC[N+](Cc8ccc(Cn9cc[n+](CCCCCCCC)c9)cc8)(CC6)CC7)cc5)(CC3)CC4)cc2)c1.[Br-].[Br-].[Br-].[Br-].[Br-].[Br-] [IDPPX8]
CMC [1]: 1552 µg/mL
MIC C.A. [2]: 62 µg/mL
MIC50 C.A. (value in brackets) [2]: (8-31) μg/ml
Fungistatic or fungicidal (Candida albicans): fungistatic
Interaction when applied together with voriconazole (C. albicans): Synergy
FIC with Fluconazole (C. albicans): 0.25
Alone MIC50 component A (C. albicans): 16 µg/mL
Combined MIC50 component A (C. albicans; [7]): 2 µg/mL
Combined MIC50 component A (C. albicans; oligomer in combination with Itraconazole): 4 µg/mL
Combined MIC50 component A (C. albicans; oligomer in combination with Voriconazole): 4 µg/mL
FIC (C. albicans; [8]): 0.19
FIC (C. albicans; oligomer with Itraconazole): 0.50
FIC (C. albicans; oligomer with Voriconazole): 0.30
MIC S.A. [3]: 8 µg/mL
MIC P.A. [4]: 500 µg/mL
MIC E.C. [5]: 62 µg/mL
HC10 [6]: >2000 µg/mL

c1ccc(Cn2cc[n+](Cc3ccc(C[N+]45CC[N+](Cc6ccc(C[N+]78CC[N+](Cc9ccc(C[n+]%10ccn(Cc%11ccccc%11)c%10)cc9)(CC7)CC8)cc6)(CC4)CC5)cc3)c2)cc1 [IDPPXb]
CMC [1]: 1860 µg/mL
MIC C.A. [2]: 2000 µg/mL
MIC50 C.A. (value in brackets) [2]: (500) μg/ml
FIC with Fluconazole (C. albicans): 0.5
MIC S.A. [3]: 125 µg/mL
MIC P.A. [4]: >1000 µg/mL
MIC E.C. [5]: 62 µg/mL

CCCCCCCC[n+]1ccn(Cc2ccc(Cn3cc[n+](C/C=C/C[N+]45CC[N+](C/C=C/C[n+]6ccn(Cc7ccc(Cn8cc[n+](CCCCCCCC)c8)cc7)c6)(CC4)CC5)c3)cc2)c1.[Br-].[Br-].[Br-].[Br-].[Br-].[Br-] [IIDPBX8]
CMC [1]: 291 µg/mL
MIC C.A. [2]: 62 µg/mL
MIC50 C.A. (value in brackets) [2]: (8) μg/ml
FIC with Fluconazole (C. albicans): 0.31
MIC S.A. [3]: 4 µg/mL
MIC P.A. [4]: 250 µg/mL
MIC E.C. [5]: 62 µg/mL
HC10 [6]: >2000 µg/mL

CCCCCCCC[n+]1ccn(Cc2ccc(Cn3cc[n+](Cc4ccc(C[N+]56CC[N+](C/C=C/C[N+]78CC[N+](Cc9ccc(C[n+]%10ccn(Cc%11ccc(Cn%12cc[n+](CCCCCCCC)c%12)cc%11)c%10)cc9)(CC7)CC8)(CC5)CC6)cc4)c3)cc2)c1.[Br-].[Br-].[Br-].[Br-].[Br-].[Br-].[Br-].[Br-] [IIDPPBX8]
CMC [1]: 727 µg/mL
MIC C.A. [2]: 31 µg/mL
MIC50 C.A. (value in brackets) [2]: (2-8) μg/ml
FIC with Fluconazole (C. albicans): 1.00
Alone MIC50 component A (C. albicans): 2 µg/mL
Combined MIC50 component A (C. albicans; [7]): 1 µg/mL
FIC (C. albicans; [8]): 1.0
MIC S.A. [3]: 8 µg/mL
MIC P.A. [4]: 125 µg/mL
MIC E.C. [5]: 31 µg/mL
HC10 [6]: >2000 µg/mL

C[C@@H](c1ncncc1F)[C@](O)(Cn1cncn1)c1ccc(F)cc1F [Voriconazole, voriconazole, reference compound]
MIC [2]: 0.025 to 0.1 µg/mL (≈ 0.0716 to 0.286 µM)
Combined MIC50 component B (C. albicans; [9]): 0.006 µg/mL
Combined MIC50 component B (C. albicans; [10]): 0.003 µg/mL

itraconazole [reference compound]
MIC C.A. [2]: 0.016 to 0.03 µg/mL
Alone MIC50 component B (C. albicans; triazole alone): 0.016 µg/mL and 0.03 µg/mL
Combined MIC50 component B (C. albicans; [9]): 0.015 µg/mL
Combined MIC50 component B (C. albicans; [10]): 0.004 µg/mL
